Values quoted from earlier work in patent publication US20200054560A1 (Alnova Pharmaceuticals, Ltd., priority 2017, published 2020).

With `CC(=O)c1c(C)c2cnc(Nc3ccc(N4CCNCC4)cn3)nc2n(C2CCCC2)c1=O` [Palbociclib, 6-acetyl-8-cyclopentyl-5-methil-2-(5-piperazin-1-yl-pyridin-2-ylamino)-8H-pyrido [2,3-d] pyridin-7-one] as the compound, how does the “solubility in N,N-dimethylformamide” value (N,N-dimethylformamide) read?
The value was “slightly soluble”.

What about the “solubility above pH 4” value (above pH 4) of the same compound?
The value was “reduces significantly”.

And the “solubility behaviour at or below pH 4” value (at or below pH 4)?
The value was “high-solubility compound”.

What about the “solubility in dimethyl sulfoxide” value (dimethyl sulfoxide) of the same compound?
The value was “slightly soluble”.

And the solubility in methanol (methanol)?
Its solubility in methanol is “very slightly soluble”.

What about the solubility in water (water) of the same compound?
The solubility in water was “very slightly soluble”.
